Consider six molecules from US10351500B2, “Method of using of dihydro-resveratrol or its stilbenoid derivatives and/or chemical variants as antimicrobial agents” (Hong Kong Baptist University, priority 2015, dated 2019).

The subject of one assay is Trichophyton rubrum. Kind of assay: anti-fungal growth inhibition, T. rubrum. Conditions: for inhibition at 25 µM / inhibition at 50 µM / inhibition at 100 µM: Trichophyton rubrum, 168 h; for inhibition at 25 µM: read-out: Inhibition rate (25 μM); for inhibition at 50 µM: read-out: Inhibition rate (50 μM); for inhibition at 100 µM: read-out: Inhibition rate (100 μM). It is filed as cell-based. Here is the method:
(§1) Evaluation of anti-fungal activity. In a single well of the 96-well microplate, 10 μL of the testing compound is added into 190 μL of growth medium (Difco™ YM) containing an overnight culture of Trichophyton rubrum or Trichophyton mentagrophytes at a density of approximately 5×10^5 CFU. The testing compounds include dihydro-resveratrol and DR1 to DR11. Wells incubated with 10 μL 0.5% DMSO only (i.e. no testing compound) are served as the experimental control of fungal growth whilst those incubated with growth medium only (i.e. no fungi) are served as the negative control. […] The percentage of growth inhibition of T. mentagrophytes by the different concentrations of testing compounds is shown in Table 10 whilst the percentage of growth inhibition of T. rubrum is shown in Table 11. The images of T. mentagrophytes culture are captured post treatment of dihydro-resveratrol (100 μM) and DR8 (100 μM) when compared to the growth of experimental control and negative control (FIG. 30).

A short description of assay [1]: ABTS radical decolorization assay (antioxidant capacity). It is filed as biochemical. Conditions: 15 min, 734 nm.
For assay [2], the system named is Trichophyton mentagrophytes. The experiment in a line: anti-fungal growth inhibition, T. mentagrophytes. The assay is classed as cell-based. Conditions: for inhibition at 25 µM / inhibition at 50 µM / inhibition at 100 µM: Trichophyton mentagrophytes, 168 h; for inhibition at 25 µM: read-out: Inhibition rate (25 μM); for inhibition at 50 µM: read-out: Inhibition rate (50 μM); for inhibition at 100 µM: read-out: Inhibition rate (100 μM). Here is the method: as §1

In the next assay the test system is Streptococcus sobrinus. Kind of assay: anti-bacterial growth inhibition, S. sobrinus. Conditions: for inhibition at 25 µM / inhibition at 50 µM / inhibition at 100 µM: Streptococcus sobrinus; for inhibition at 25 µM: read-out: Inhibition rate (25 μM); for inhibition at 50 µM: read-out: Inhibition rate (50 μM); for inhibition at 100 µM: read-out: Inhibition rate (100 μM). It is filed as cell-based. As for the experimental part:
(§2) Evaluation of anti-bacterial activity. In a single well of the 96-well microplate, 10 μL of the testing compound is added into 190 μL of growth medium growth medium (BBL™ Brain Heart Infusion) containing an overnight culture of Streptococcus mutans or Streptococcus sobrinus at a density of approximately 5×10^5 CFU. The testing compounds include dihydro-resveratrol and DR1 to DR11. Wells incubated with 10 μL 0.5% DMSO only (i.e. no testing compound) are served as the experimental control of bacterial growth whilst those incubated with growth medium only (i.e. no bacteria) are served as the negative control. […] The percentage of growth inhibition of S. mutans by the different concentrations of testing compounds is shown in Table 12 whereas the percentage of growth inhibition of S. sobrinus is shown in Table 13. The images of S. mutans culture are captured post treatment of dihydro-resveratrol (100 μM) and DR8 (100 μM) when compared to the growth of experimental control and negative control (FIG. 31).

The test system of another assay is Streptococcus mutans. Kind of assay: anti-bacterial growth inhibition, S. mutans. It is filed as cell-based. Conditions: for inhibition at 25 µM / inhibition at 50 µM / inhibition at 100 µM: Streptococcus mutans; for inhibition at 25 µM: read-out: Inhibition rate (25 μM); for inhibition at 50 µM: read-out: Inhibition rate (50 μM); for inhibition at 100 µM: read-out: Inhibition rate (100 μM). As for the experimental part:
as §2

The subject of assay [3] is HCT-116 human colorectal carcinoma xenograft tumor. The experiment in a line: HCT-116 nude mouse xenograft model. It is filed as in vivo, BALB/c nude mice. Conditions: i.p. every other day, 5-FU 25 mg/kg, D-res 100 mg/kg. The text has this:
All animal studies were approved and performed according to Animal Care and Use Guidelines of the Animal Ethics Committee at Hong Kong Baptist University. BALB/c nude mice, SPF class, male, 6-8 weeks old, were purchased from BioLASCO, Taiwan. Before the xenograft experiment, the mice were acclimatized to SPF class laboratory conditions for a week.
HCT-116 cells in logarithmic growth phase were collected by trypsinization. After centrifugation and rinsing, cells were re-suspended in serum-free DMEM medium at 3×10^7 cells/mL. Nude mice were skin disinfected with 75% medical ethanol, subcutaneously injected with 100 μL of the HCT-116 cell suspension using a 25-G syringe to their left flank. The same procedure was repeated for the tumor cell injection to the right flank.
Seven days after tumor cell injection, 24 mice with tumor volumes of 32 mm^3 to 178 mm^3 were randomly assigned into 3 groups; the average initial tumor volumes in each group of mice were 78.04±7.76 mm^3 (vehicle, 8 mice), 78.76±9.40 mm^3 (5-FU, 8 mice), 78.01±7.75 mm^3 (D-res, 8 mice) respectively.
Vehicle solution: 2.5% Ethanol and Cremphor EL (1:1 v/v) dissolved in physiological saline.
5-FU solution: 5-FU powder was dissolved in 2.5% Ethanol and Cremphor EL to a concentration of 5 mg/mL.
D-res solution: Dihydro-resveratrol powder was dissolved in 2.5% Ethanol and Cremphor EL solution to a concentration of 20 mg/mL.
Vehicle group (n=8): 2.5% Ethanol and Cremphor EL solution was intraperitoneally injected every other day for 21 days.
5-FU group (n=8): 5-FU solution was given to mice at 25 mg/kg by intraperitoneal injection every other day for 21 days.
D-res group (n=8): D-res solution was given to mice at 100 mg/kg by intraperitoneal injection every other day for 21 days. This is equivalent to a dosage of no less than 8.13 mg/kg of bodily weight in human.

The mark [4] stands for this setting: T. rubrum, 25 μM, one week, 30° C., OD 510 nm.
Where [5] appears, read: T. rubrum, 50 μM, one week, 30° C., OD 510 nm.
The mark [6] stands for this setting: T. rubrum, 100 μM, one week, 30° C., OD 510 nm.
The mark [7] stands for this setting: T. mentagraphytes, 25 μM, one week, 30° C., OD 510 nm.
[8] abbreviates: T. mentagraphytes, 50 μM, one week, 30° C., OD 510 nm.
Setting [9] is: T. mentagraphytes, 100 μM, one week, 30° C., OD 510 nm.
Setting [10] is: S. sobrinus, 25 μM, 10 hours, 30° C., OD 600 nm.
Where [11] appears, read: S. sobrinus, 50 μM, 10 hours, 30° C., OD 600 nm.
[12] abbreviates: S. sobrinus, 100 μM, 10 hours, 30° C., OD 600 nm.
The mark [13] stands for this setting: S. mutans, 25 μM, 10 hours, 30° C., OD 600 nm.
Setting [14] is: S. mutans, 50 μM, 10 hours, 30° C., OD 600 nm.
Setting [15] is: S. mutans, 100 μM, 10 hours, 30° C., OD 600 nm.

SMILES strings stand for the structures. Where two headings read alike, the source gives them in different places.

On to `COc1ccc(C(=O)Oc2ccc(CCc3cc(OC(=O)c4ccc(OC)cc4)cc(OC(=O)c4ccc(OC)cc4)c3)cc2)cc1` [DR6], for which the inhibition – broadly, the percentage by which the read-out fell short of the control – at 25 µM with Trichophyton rubrum (setting [4]) was determined as 5.81%; in assay [2] (setting [7]), 3.33%; in the assay on Streptococcus sobrinus (setting [10]) it was 5.99%; with Streptococcus mutans (setting [13]), 6.52%. Besides, the inhibition at 50 µM with Trichophyton rubrum (setting [5]) amounted to 2.49%; in assay [2] (setting [8]), 8.01%; in the assay with Streptococcus sobrinus (setting [11]) it was 15.7%; in the assay on Streptococcus mutans (setting [14]), 4.36%. Also, the inhibition at 100 µM in the assay on Trichophyton rubrum (setting [6]) amounted to 20.9%; in assay [2] (setting [9]), 21.6%; in the assay with Streptococcus sobrinus (setting [12]), 7.54%; in the assay with Streptococcus mutans (setting [15]), 5.96%. In addition, the “Trolox equivalent (mg), antioxidant capacity” value (shortened to “Trolox equivalent (mg)”) in assay [1] came out at 0 mg.

On to `CC(C)(C)C(=O)Oc1ccc(CCc2cc(OC(=O)C(C)(C)C)cc(OC(=O)C(C)(C)C)c2)cc1` [DR11], for which the inhibition at 25 µM in the assay on Trichophyton rubrum (setting [4]) was 8.1%; in assay [2] (setting [7]) it was 13.1%; in the assay on Streptococcus sobrinus (setting [10]), 10.5%; with Streptococcus mutans (setting [13]), 5.49%. Moreover, the inhibition at 50 µM in the assay with Trichophyton rubrum (setting [5]) worked out at 7.58%; in assay [2] (setting [8]) it was 13.4%; with Streptococcus sobrinus (setting [11]), 12.6%; in the assay with Streptococcus mutans (setting [14]), 6.86%. Moreover, the inhibition at 100 µM in the assay on Trichophyton rubrum (setting [6]) was 9.54%; in assay [2] (setting [9]), 9.36%; with Streptococcus sobrinus (setting [12]), 0.18%; in the assay with Streptococcus mutans (setting [15]) it was 4.13%. For the same molecule, the “Trolox equivalent (mg)” value in assay [1] is 0 mg.

Regarding `C=CC(=O)Oc1ccc(CCc2cc(OC(=O)C=C)cc(OC(=O)C=C)c2)cc1` [DR8], the “inhibitory effect among the testing compounds” value in the assay with Trichophyton rubrum (T. rubrum, one-week incubation) is given as “highest inhibitory effect”; in assay [2] (T. mentagraphytes, one-week incubation) it was “highest inhibitory effect”; with Streptococcus sobrinus (S. sobrinus, 10-hour incubation), “highest inhibitory effect”; in the assay with Streptococcus mutans (S. mutans, 10-hour incubation) it was “highest inhibitory effect”. Moreover, the inhibition at 25 µM in the assay on Trichophyton rubrum (setting [4]) stood at 78.9%; in assay [2] (setting [7]), 83.1%; in the assay on Streptococcus sobrinus (setting [10]) it was 22.7%; with Streptococcus mutans (setting [13]), 17.1%. Moreover, the inhibition at 50 µM turned out to be 77.8% in the assay on Trichophyton rubrum (setting [5]), 80.7% in assay [2] (setting [8]), 43.8% in the assay on Streptococcus sobrinus (setting [11]) and 17.6% in the assay with Streptococcus mutans (setting [14]). The inhibition at 100 µM in the assay on Trichophyton rubrum (setting [6]) is 77.7%; in assay [2] (setting [9]), 78.8%; in the assay on Streptococcus sobrinus (setting [12]), 79.3%; with Streptococcus mutans (setting [15]), 68%. The “Trolox equivalent (mg)” value in assay [1] turned out to be 15.893 mg.

For `O=C(Oc1ccc(CCc2cc(OC(=O)c3ccccc3)cc(OC(=O)c3ccccc3)c2)cc1)c1ccccc1` [DR7], the inhibition at 25 µM in the assay with Trichophyton rubrum (setting [4]) amounted to 3.06%; in assay [2] (setting [7]), 3.79%; in the assay on Streptococcus sobrinus (setting [10]), 6.33%; in the assay on Streptococcus mutans (setting [13]), 10.1%. For the same molecule, the inhibition at 50 µM came to 6.17% in the assay on Trichophyton rubrum (setting [5]), 0.44% in assay [2] (setting [8]), 14.2% with Streptococcus sobrinus (setting [11]) and 1.55% with Streptococcus mutans (setting [14]). Further, the inhibition at 100 µM in the assay with Trichophyton rubrum (setting [6]) was found to be 11.6%; in assay [2] (setting [9]), 18.6%; in the assay with Streptococcus sobrinus (setting [12]), 12.5%; in the assay with Streptococcus mutans (setting [15]), 2.48%. For the same molecule, the “Trolox equivalent (mg)” value in assay [1] is reported as 0 mg.

With `O=c1[nH]cc(F)c(=O)[nH]1` [Compound 5-FU, fluorouracil, reference compound], the “Tumor Volume (mm^3)” value stood at 78.76 ± 9.40 mm^3 in assay [3] (Day 1 (initial)); 128.05 ± 12.25 mm^3 in assay [3] (Day 4); 187.75 ± 21.56 mm^3 in assay [3] (Day 7); 286.6 ± 28.89 mm^3 in assay [3] (Day 10); 419.1 ± 45.77 mm^3 in assay [3] (Day 13); 489.8 ± 160.66 mm^3 in assay [3] (Day 16). The “Tumor Volume (mm^3)” value is listed as 514.17 ± 160.66 mm^3 in assay [3] (Day 19), 583.6 ± 160.66 mm^3 in assay [3] (Day 21) and 655.69 ± 160.66 mm^3 in assay [3] (Day 22). The “Tumor weight” value in assay [3] (treated for 21 days) is 0.68 ± 0.08 g.

On to `O=C(Cc1ccccc1)Oc1ccc(CCc2cc(OC(=O)Cc3ccccc3)cc(OC(=O)Cc3ccccc3)c2)cc1` [DR10], for which the inhibition at 25 µM was 8.53% in the assay on Trichophyton rubrum, 3.14% in assay [2], 13.8% in the assay on Streptococcus sobrinus (10 h) and 3.42% in the assay on Streptococcus mutans (10 h). Besides, the inhibition at 50 µM in the assay on Trichophyton rubrum was found to be 6.36%; in assay [2], 12.6%; in the assay on Streptococcus sobrinus (10 h), 11.3%; with Streptococcus mutans (10 h), 3.56%. For the same molecule, the inhibition at 100 µM in the assay with Trichophyton rubrum was found to be 10.7%; in assay [2], 20.9%; in the assay with Streptococcus sobrinus (10 h), 15.8%; in the assay on Streptococcus mutans (10 h), 2.44%. In addition, the “Trolox equivalent (mg)” value in assay [1] was found to be 0 mg.
